Experiments:
BTK = target: T1, BTK (Homo sapiens, UniProt Q06187); test: BTK-GFP protein abundance flow cytometry assay in HEK293A; format: cell-based; conditions: 24 h; for BTK degradation Amax: % protein remaining at the concentration at which maximum degradation is seen, HEK293A; for DC50: concentration at which 50% maximal degradation was observed, HEK293A BTK-GFP sensor cells
T1 construct: the BTK open reading frame (ORF) was first shuttled from a pcDNA-DEST40-BTK vector; expressed in transfected cells; host or cells: HEK293A (Invitrogen R70507), lentiviral transduction, blasticidin selection
T1 sequence (Q06187 whole entry): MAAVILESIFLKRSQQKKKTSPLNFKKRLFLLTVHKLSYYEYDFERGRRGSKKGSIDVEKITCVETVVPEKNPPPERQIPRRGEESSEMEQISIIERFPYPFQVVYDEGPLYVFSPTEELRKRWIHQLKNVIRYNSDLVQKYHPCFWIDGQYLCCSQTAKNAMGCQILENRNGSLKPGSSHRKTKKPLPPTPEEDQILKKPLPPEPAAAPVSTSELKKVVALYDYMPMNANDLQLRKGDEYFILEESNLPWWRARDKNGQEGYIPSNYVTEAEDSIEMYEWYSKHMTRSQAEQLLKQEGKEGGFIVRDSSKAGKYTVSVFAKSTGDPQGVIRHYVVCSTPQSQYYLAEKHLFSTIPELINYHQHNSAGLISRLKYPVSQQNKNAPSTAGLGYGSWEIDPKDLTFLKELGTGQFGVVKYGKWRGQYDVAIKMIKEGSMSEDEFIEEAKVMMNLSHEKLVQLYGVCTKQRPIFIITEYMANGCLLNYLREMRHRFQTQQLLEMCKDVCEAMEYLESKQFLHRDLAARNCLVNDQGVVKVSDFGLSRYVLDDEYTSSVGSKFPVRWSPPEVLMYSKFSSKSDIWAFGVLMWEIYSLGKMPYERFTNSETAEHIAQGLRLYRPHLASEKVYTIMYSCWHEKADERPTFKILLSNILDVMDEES
Procedure, shortened: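 HEK293A cells stably expressing bicistronic BTK-GFP-iresRFP were treated 24 h at 37° C with 10-point 1:3 dilutions from 10 μM, DMSO at 0.1%. GFP was read by flow cytometry as median of 5,000 single cells, scaled between RFP-only cells (0%) and DMSO controls (100%). DC50 = concentration at 50% degradation; Amax = % protein remaining at maximal degradation.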

CRBN = CRBN (Homo sapiens, UniProt Q96SW2); test: CRBN displacement assay Format 1 (fluorescence polarization, BodipyFL-lenalidomide probe Compound HH); format: binding
Chain of CRBN (Q96SW2 whole entry): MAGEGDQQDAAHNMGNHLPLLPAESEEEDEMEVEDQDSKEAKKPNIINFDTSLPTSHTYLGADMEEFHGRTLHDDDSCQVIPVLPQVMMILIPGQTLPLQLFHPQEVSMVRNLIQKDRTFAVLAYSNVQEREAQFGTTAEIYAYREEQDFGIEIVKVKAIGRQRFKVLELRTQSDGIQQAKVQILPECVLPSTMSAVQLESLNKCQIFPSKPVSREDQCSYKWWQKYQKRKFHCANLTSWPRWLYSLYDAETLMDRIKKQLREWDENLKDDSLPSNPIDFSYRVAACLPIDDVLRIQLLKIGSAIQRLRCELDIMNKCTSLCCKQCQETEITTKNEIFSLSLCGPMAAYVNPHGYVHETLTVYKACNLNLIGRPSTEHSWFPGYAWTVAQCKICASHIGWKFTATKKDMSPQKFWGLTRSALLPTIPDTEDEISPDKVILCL
Procedure, shortened: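 Compound and CRBN protein (nominally 100 nM) were preincubated for 45 min at room temperature before a 5 nM BodipyFL-lenalidomide probe started competition, with 0.9% DMSO final. Polarization was measured 45 min later, exciting at 485 nm and reading 520 nm. AC50 came from a logistic fit with Hill coefficient.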

| SMILES | BTK degradation Amax (BTK) [%] | DC50 (BTK) [nM] | AC50 (CRBN) [nM] |
| --- | --- | --- | --- |
| COc1cc(C(=O)N2CCC(OC3CCN(Cc4ccc(-c5cc6c(-c7cc(F)cc(NC(=O)c8ccc(C(C)(C)O)cc8F)c7C)ncnc6[nH]5)cc4)CC3)CC2)ccc1N1CCC(=O)NC1=O [Compound 24, N-(3-(6-(4-((4-((1-(4-(2,4-Dioxotetrahydropyrimidin-1(2H)-yl)-3-methoxybenzoyl)piperidin-4-yl)oxy)piperidin-1-yl)methyl)phenyl)-7H-pyrrolo[2,3-d]pyrimidin-4-yl)-5-fluoro-2-methylphenyl)-2-fluoro-4-(2-hydroxypropan-2-yl)benzamide] | 55.7 | 24 | 5190 |
| Cc1c(NC(=O)c2ccc(C(C)(C)O)cc2F)cc(F)cc1-c1ncnc2[nH]c(-c3ccc(CN4CCOC(CN(C)CCOc5cccc(N6CCC(=O)NC6=O)c5)C4)cc3)cc12 (stereo not drawn) [Compound 15, N-(3-(6-(4-((2-(((2-(3-(2,4-Dioxotetrahydropyrimidin-1(2H)-yl)phenoxy)ethyl)(methyl)amino)methyl)morpholino)methyl)phenyl)-7H-pyrrolo[2,3-d]pyrimidin-4-yl)-5-fluoro-2-methylphenyl)-2-fluoro-4-(2-hydroxypropan-2-yl)benzamide] | 28.8 | 21.7 | 4110 |
| Cc1c(NC(=O)c2ccc(C(C)(C)O)cc2F)cc(F)cc1-c1ncnc2[nH]c(-c3ccc(CN(C)CCCCCCOc4cccc(N5CCC(=O)NC5=O)c4)cc3)cc12 [Compound 16, N-(3-(6-(4-(((6-(3-(2,4-Dioxotetrahydropyrimidin-1(2H)-yl)phenoxy)hexyl)(methyl)amino)methyl)phenyl)-7H-pyrrolo[2,3-d]pyrimidin-4-yl)-5-fluoro-2-methylphenyl)-2-fluoro-4-(2-hydroxypropan-2-yl)benzamide] | 15.9 | 22.6 | 916 |
| Cc1c(NC(=O)c2ccc(C(C)(C)O)cc2F)cc(F)cc1-c1ncnc2[nH]c(-c3ccc(CNCCCCOCCn4cccc(CN5CCC(=O)NC5=O)c4=O)cc3)cc12 [Compound 34, N-(3-(6-(4-(((4-(2-(3-((2,4-dioxotetrahydropyrimidin-1(2H)-yl)methyl)-2-oxopyridin-1(2H)-yl)ethoxy)butyl)amino)methyl)phenyl)-7H-pyrrolo[2,3-d]pyrimidin-4-yl)-5-fluoro-2-methylphenyl)-2-fluoro-4-(2-hydroxypropan-2-yl)benzamide] | 40.3 | 642 | 736 |
| Cc1c(NC(=O)c2ccc(C(C)(C)O)cc2F)cc(F)cc1-c1ncnc2[nH]c(-c3ccc(CN4CCC(CCNC(=O)COc5cccc(N6CCC(=O)NC6=O)c5)CC4)cc3)cc12 [Compound 11, N-(3-(6-(4-((4-(2-(2-(3-(2,4-Dioxotetrahydropyrimidin-1(2H)-yl)phenoxy)acetamido)ethyl)piperidin-1-yl)methyl)phenyl)-7H-pyrrolo[2,3-d]pyrimidin-4-yl)-5-fluoro-2-methylphenyl)-2-fluoro-4-(2-hydroxypropan-2-yl)benzamide] | 2.3 | 2.2 | 599 |
| Cc1c(NC(=O)c2ccc(C(C)(C)O)cc2F)cc(F)cc1-c1ncnc2[nH]c(-c3ccc(CN4CCN(CCNC(=O)COc5cccc(N6CCC(=O)NC6=O)c5)CC4)cc3)cc12 [Compound 09, N-(3-(6-(4-((4-(2-(2-(3-(2,4-dioxotetrahydropyrimidin-1(2H)-yl)phenoxy)acetamido)ethyl)piperazin-1-yl)methyl)phenyl)-7H-pyrrolo[2,3-d]pyrimidin-4-yl)-5-fluoro-2-methylphenyl)-2-fluoro-4-(2-hydroxypropan-2-yl)benzamide] | 3.9 | 3.2 | 1400 |
| Cc1c(NC(=O)c2ccc(C(C)(C)O)cc2F)cc(F)cc1-c1ncnc2[nH]c(-c3ccc(CN(C)CCCNC(=O)COc4cccc(N5CCC(=O)NC5=O)c4)cc3)cc12 [Compound 12, N-(3-(6-(4-(((3-(2-(3-(2,4-dioxotetrahydropyrimidin-1(2H)-yl)phenoxy)acetamido)propyl)(methyl)amino)methyl)phenyl)-7H-pyrrolo[2,3-d]pyrimidin-4-yl)-5-fluoro-2-methylphenyl)-2-fluoro-4-(2-hydroxypropan-2-yl)benzamide] | 2.3 | 10.7 | 7160 |
| Cc1c(NC(=O)N2CC(O)(CC(C)(C)C)C2)cc(F)cc1-c1ncnc2[nH]c(-c3ccc(OCCCN4CCN(C(=O)COc5ccc(Cl)c(N6CCC(=O)NC6=O)c5)CC4)nc3)cc12 [Compound 13, N-(3-(6-(6-(3-(4-(2-(4-chloro-3-(2,4-dioxotetrahydropyrimidin-1(2H)-yl)phenoxy)acetyl)piperazin-1-yl)propoxy)pyridin-3-yl)-7H-pyrrolo[2,3-d]pyrimidin-4-yl)-5-fluoro-2-methylphenyl)-3-hydroxy-3-neopentylazetidine-1-carboxamide] | 4.6 | 3.7 | 575 |
| Cc1ccc(OCC(=O)N2CCN(CCOc3ccc(-c4cc5c(-c6cc(F)cc(NC(=O)c7ccc(C(C)(C)O)cc7F)c6C)ncnc5[nH]4)cc3)CC2)cc1N1CCC(=O)NC1=O [Compound 10, N-(3-(6-(4-(2-(4-(2-(3-(2,4-Dioxotetrahydropyrimidin-1(2H)-yl)-4-methylphenoxy)acetyl)piperazin-1-yl)ethoxy)phenyl)-7H-pyrrolo[2,3-d]pyrimidin-4-yl)-5-fluoro-2-methylphenyl)-2-fluoro-4-(2-hydroxypropan-2-yl)benzamide] | 3.1 | 3.3 | 466 |
| Cc1c(NC(=O)c2ccc(C(C)(C)O)cc2F)cc(F)cc1-c1ncnc2[nH]c(C3=CCN(C(=O)CCCCN4CCC(Oc5ccc(N6CCC(=O)NC6=O)cc5)CC4)CC3)cc12 [Compound 27, N-(3-(6-(1-(5-(4-(4-(2,4-Dioxotetrahydropyrimidin-1(2H)-yl)phenoxy)piperidin-1-yl)pentanoyl)-1,2,3,6-tetrahydropyridin-4-yl)-7H-pyrrolo[2,3-d]pyrimidin-4-yl)-5-fluoro-2-methylphenyl)-2-fluoro-4-(2-hydroxypropan-2-yl)benzamide] | 21.7 | 22 | 1940 |
| Cc1c(NC(=O)c2ccc(C(C)(C)O)cc2F)cc(F)cc1-c1ncnc2[nH]c(-c3ccc(CN4CCN(C(=O)N5CCN(CCC#Cc6ccc(N7CCC(=O)NC7=O)cc6)CC5)CC4)cc3)cc12 [Compound 23, N-(3-(6-(4-((4-(4-(4-(4-(2,4-Dioxotetrahydropyrimidin-1(2H)-yl)phenyl)but-3-yn-1-yl)piperazine-1-carbonyl)piperazin-1-yl)methyl)phenyl)-7H-pyrrolo[2,3-d]pyrimidin-4-yl)-5-fluoro-2-methylphenyl)-2-fluoro-4-(2-hydroxypropan-2-yl)benzamide] | 9.6 | 2.8 | > 50500 |
| COc1cc(C(=O)NCCCCN2CCN(Cc3ccc(-c4cc5c(-c6cc(F)cc(NC(=O)c7ccc(C(C)(C)O)cc7F)c6C)ncnc5[nH]4)cc3)CC2)ccc1N1CCC(=O)NC1=O [Compound 25, N-(3-(6-(4-((4-(4-(4-(2,4-dioxotetrahydropyrimidin-1(2H)-yl)-3-methoxybenzamido)butyl)piperazin-1-yl)methyl)phenyl)-7H-pyrrolo[2,3-d]pyrimidin-4-yl)-5-fluoro-2-methylphenyl)-2-fluoro-4-(2-hydroxypropan-2-yl)benzamide] | 51.1 | > 3330 | 4470 |

Reference: patent publication US20220387602A1, “BIFUNCTIONAL DEGRADERS AND THEIR METHODS OF USE” (NOVARTIS AG, priority 2019, published 2022)
